According to the supplement of paper PMC9103864:

Experiments:
[1] = tested on: BMSC (primary human bone marrow mesenchymal stromal cells); experiment: drug sensitivity score (DSS); higher = more sensitive
[2] = tested on: BMSC (primary human bone marrow mesenchymal stromal cells); experiment: absolute EC50 for viability; higher = less sensitive

## O=c1sn(-c2cccc3ccccc23)c(=O)n1Cc1ccccc1 [Tideglusib]
[1]
  drug sensitivity score: 0
[2]
  absolute EC50 for viability: > 3 µM

## Cn1cncc1[C@@](N)(c1ccc(Cl)cc1)c1ccc2c(c1)c(-c1cccc(Cl)c1)cc(=O)n2C [Tipifarnib]
[1]
  drug sensitivity score: 4.4
[2]
  absolute EC50 for viability: > 10 µM

## O=C1NC(=O)[C@@H](c2cn3c4c(cccc24)CCC3)[C@@H]1c1c[nH]c2ccccc12 [Tivantinib]
[1]
  drug sensitivity score: 0
[2]
  absolute EC50 for viability: > 1 µM

## COc1cc2nccc(Oc3ccc(NC(=O)Nc4cc(C)on4)c(Cl)c3)c2cc1OC [Tivozanib]
[1]
  drug sensitivity score: 7.6
[2]
  absolute EC50 for viability: > 10 µM

## C[C@@H]1CCN(C(=O)CC#N)C[C@@H]1N(C)c1ncnc2[nH]ccc12 [Tofacitinib]
[1]
  drug sensitivity score: 0
[2]
  absolute EC50 for viability: > 5 µM

## CC[C@@]1(O)C(=O)OCc2c1cc1n(c2=O)Cc2cc3c(CN(C)C)c(O)ccc3nc2-1 [Topotecan]
[1]
  drug sensitivity score: 4.4
[2]
  absolute EC50 for viability: > 10 µM

## CN(C)CCOc1ccc(/C(=C(/CCCl)c2ccccc2)c2ccccc2)cc1 [Toremifene]
[1]
  drug sensitivity score: 0
[2]
  absolute EC50 for viability: > 10 µM

## CC(C)C[C@@H](C(=O)N[C@H](C(=O)OC1CCCC1)c1ccccc1)[C@H](O)C(=O)NO [Tosedostat]
[1]
  drug sensitivity score: 0
[2]
  absolute EC50 for viability: > 10 µM

## Cc1cc(Nc2cc(N3CCN(C)CC3)nc(Sc3ccc(NC(=O)C4CC4)cc3)n2)n[nH]1 [Tozasertib]
[1]
  drug sensitivity score: 4.9
[2]
  absolute EC50 for viability: 4.45 µM

## CC(=O)Nc1cccc(-n2c(=O)n(C3CC3)c(=O)c3c(Nc4ccc(I)cc4F)n(C)c(=O)c(C)c32)c1 [Trametinib]
[1]
  drug sensitivity score: 2.7
[2]
  absolute EC50 for viability: > 0.25 µM

## CC1=C(/C=C/C(C)=C/C=C/C(C)=C/C(=O)O)C(C)(C)CCC1 [Tretinoin]
[1]
  drug sensitivity score: 0
[2]
  absolute EC50 for viability: > 10 µM

## NC(=S)N/N=C/c1ncccc1N [Triapine]
[1]
  drug sensitivity score: 0
[2]
  absolute EC50 for viability: > 10 µM

## O=c1[nH]c(=O)n([C@H]2C[C@H](O)[C@@H](CO)O2)cc1C(F)(F)F [Trifluridine]
[1]
  drug sensitivity score: 0
[2]
  absolute EC50 for viability: > 10 µM

## O=C(CCCCCCC(=O)Nc1ccc([C@H]2O[C@@H](CSc3nc(-c4ccccc4)c(-c4ccccc4)o3)C[C@@H](c3ccc(CO)cc3)O2)cc1)NO [Tubacin]
[1]
  drug sensitivity score: 0
[2]
  absolute EC50 for viability: > 10 µM

## CN1CCc2c(c3ccccc3n2Cc2ccc(C(=O)NO)cc2)C1 [Tubastatin A]
[1]
  drug sensitivity score: 0
[2]
  absolute EC50 for viability: 9.93 µM

## CN[C@@H]1C[C@H]2O[C@@](C)([C@@H]1OC)n1c3ccccc3c3c4c(c5c6ccccc6n2c5c31)C(=O)N[C@H]4O [UCN-01]
[1]
  drug sensitivity score: 13.3
[2]
  absolute EC50 for viability: 0.643 µM

## COC(=O)c1ccc2c(c1)[nH]c1ncnc(NCCCN3CCCCC3)c12 [UM729]
[1]
  drug sensitivity score: 3.3
[2]
  absolute EC50 for viability: > 10 µM

## COc1cc2c(NC3CCN(C(C)C)CC3)nc(C3CCCCC3)nc2cc1OCCCN1CCCC1 [UNC0638]
[1]
  drug sensitivity score: 5.4
[2]
  absolute EC50 for viability: 3.29 µM

## COc1cc2c(NC3CCN(C(C)C)CC3)nc(N3CCC(F)(F)CC3)nc2cc1OCCCN1CCCC1 [UNC0642]
[1]
  drug sensitivity score: 5.2
[2]
  absolute EC50 for viability: 3.38 µM

## O=C(c1ccc(C(=O)N2CCC(N3CCCC3)CC2)c(Nc2ccccc2)c1)N1CCC(N2CCCC2)CC1 [UNC1215]
[1]
  drug sensitivity score: 0
[2]
  absolute EC50 for viability: > 10 µM

## CCCCNc1ncc(C(=O)NCc2ccc(-n3ccnc3)cc2)c(NC2CCC(O)CC2)n1 (stereo not drawn) [UNC2881]
[1]
  drug sensitivity score: 0.1
[2]
  absolute EC50 for viability: > 2.5 µM

## NC(=O)c1cccc(-c2cccc(OC(=O)NC3CCCCC3)c2)c1 [URB597]
[1]
  drug sensitivity score: 0
[2]
  absolute EC50 for viability: > 1 µM

## CC(C)Nc1cc(-c2c[nH]c(C(=O)N[C@H](CO)c3cccc(Cl)c3)c2)c(Cl)cn1 [Ulixertinib]
[1]
  drug sensitivity score: 2.4
[2]
  absolute EC50 for viability: > 10 µM

## CC[C@@H]1CN(C(=O)NCC(F)(F)F)C[C@@H]1c1cnc2cnc3[nH]ccc3n12 [Upadacitinib]
[1]
  drug sensitivity score: 1.1
[2]
  absolute EC50 for viability: > 10 µM
